The values below come from patent US8124343B2, “IRE-1α substrates” (MannKind Corporation, priority 2005, dated 2012).

{BHQ1} = Black Hole Quencher-1 (BHQ-1) label; {FAM} = fluorescein (FAM) label

Common to all, as to type: biochemical
In data set [1] the target is T1, IRE-1α (Homo sapiens, UniProt O75460).
T1 construct: GST (N, cleaved yes); made in house; host or cells: baculovirus-infected insect cells
As to the kind of experiment: IRE-1α RNase activity assay, reaction products separated on denaturing gel.

In data set [2] the target is T1, IRE-1α. In words: High-throughput screening assay of IRE-1α RNase activity. The conditions noted are these: for fluorescence signal, average: 384-well plates. Here is the method: Five μl of a reaction mixture comprising 1× reaction buffer (5× reaction buffer is 100 mM Hepes pH 7.5, 250 mM KOAc, 2.5 mM MgCl2), 3 mM DTT, and 0.4% polyethylene glycol water were added to each well of 384 well plates. Twenty-five nanoliters of a 1 mM test compound solution were added to test wells. Three μl of a […] IRE-1α preparation were added to each test well and to positive control wells (final concentration 5.82 ng/well). Negative control wells contained only reaction mixture and test compound.
After spinning the plates at 1200 rpm for 30 seconds, 3 μl of a 63 nM wild-type IRE-1α substrate or 3 μl of a 63 nM mutant IRE-1α substrate diluted to 48 nM were added to each well of a control plate. The plates were again spun at 1200 rpm for 30 seconds. Final concentrations for the assay were: 63 nM wild-type IRE-1α substrate (or 48 nM mutant IRE-α substrate), 5.82 ng IRE-1α protein, and 2.5 μM test compound.
The plates were covered with lids and incubated for one hour at 30° C. The plates were then transferred to an ACQUEST™ microplate reader. Data was analyzed using data analysis software. The percent activity of IRE-1α was calculated using the following equation: […]
A Beckman Biomek FX robot was used to load all components of the reaction into 384-well plates in the following order: buffer with test compound, IRE-1α, and substrate into 384-well plates. Controls with substrate alone and substrate with IRE-1α were used to calibrate signal to noise ratio and variability between wells (first two left hand rows respectively, in FIG. 6). The two far right lanes in FIG. 6 contain the mutant 15 base dual-labeled substrate with and without IRE-1α as a quality control check for RNase contamination.

Data set [3] addresses T1, IRE-1α. In words: Kinetics of IRE-1α-mediated substrate cleavage. The conditions noted are these: 20 nM purified IRE-1α, 63 nM substrate, 60 minute incubation, 30° C. The protocol:
Kinetics of IRE-1α-mediated substrate cleavage were measured in an assay as described above using purified active IRE-1α and the wild-type 15 base FAM-BHQ-1™-labeled substrate. The plate was incubated at 30° C. and read every 5 minutes.
These conditions result in a signal of 60,000 units, which is approximately 75% of the full 80,000 unit signal.

In data set [4] the target is T1, IRE-1α. In words: Competition assay with 15 base wild-type dual-labeled substrate as readout. The protocol: Increasing amounts of either unlabeled wild-type (SEQ ID NO:1) or mutant 33 base substrate (SEQ ID NO:2) were incubated in the standard reaction as described in Example 2 for 1 hour at 30° C.
X-axis, fluorescence intensity; columns of Y axis, from left to right: 1, wild-type 15 base FAM BHQ-1™ substrate, no IRE-1α, and no competitor (background signal); 2, wild-type 15 base FAM BHQ-1™ substrate, no IRE-1α (background signal) plus 50 fold molar excess of unlabeled wild-type 33 base substrate (control for possible quenching of fluorophore with excess and possible hybridizing to the longer 33 base substrate); 3, wild-type 15 base FAM BHQ-1™ substrate with IRE-1α and an equivalent amount of wild-type 33 base substrate; 4, same as 3 with 2× wild-type 33 base substrate; 5, same as 3 with 5× wild-type 33 base substrate; 6, same as 3 with 10× wild-type 33 base substrate; 7, same as 3 with 20× wild-type 33 base substrate; 8, same as 3 with 50× wild-type 33 base substrate; 9, wild-type 15 base FAM BHQ-1™ substrate no IRE-1α (background signal) plus 50 fold molar excess of unlabeled mutant 33 base substrate (control for possible quenching of fluorophore with excess and possible hybridizing to the longer 33 base substrate (essentially the same as 2); 10, wild-type 15 base FAM BHQ-1™ substrate with IRE-1α and an equivalent amount of mutant 33 base substrate; 11, same as 3 with 2×33 base mutant substrate; 12, same as 3 with 5×33 base mutant substrate; 13, same as 3 with 10×33 base mutant substrate; 14, same as 3 with 20×33 base mutant substrate; 15, same as 3 with 50×33 base mutant substrate; 16, wild-type 15 base FAM BHQ-1™ substrate with IRE-1α (positive control).

Where [5] appears, read: with IRE-1α added, FIG. 3 lanes 13-14.
The mark [6] stands for this setting: with IRE-1α, no PEG, FIG. 3 lanes 3-4.
The mark [7] stands for this setting: with IRE-1α, with PEG, FIG. 3 lanes 7-8.

T1 sequence (O75460 with tags, fused parts or gaps): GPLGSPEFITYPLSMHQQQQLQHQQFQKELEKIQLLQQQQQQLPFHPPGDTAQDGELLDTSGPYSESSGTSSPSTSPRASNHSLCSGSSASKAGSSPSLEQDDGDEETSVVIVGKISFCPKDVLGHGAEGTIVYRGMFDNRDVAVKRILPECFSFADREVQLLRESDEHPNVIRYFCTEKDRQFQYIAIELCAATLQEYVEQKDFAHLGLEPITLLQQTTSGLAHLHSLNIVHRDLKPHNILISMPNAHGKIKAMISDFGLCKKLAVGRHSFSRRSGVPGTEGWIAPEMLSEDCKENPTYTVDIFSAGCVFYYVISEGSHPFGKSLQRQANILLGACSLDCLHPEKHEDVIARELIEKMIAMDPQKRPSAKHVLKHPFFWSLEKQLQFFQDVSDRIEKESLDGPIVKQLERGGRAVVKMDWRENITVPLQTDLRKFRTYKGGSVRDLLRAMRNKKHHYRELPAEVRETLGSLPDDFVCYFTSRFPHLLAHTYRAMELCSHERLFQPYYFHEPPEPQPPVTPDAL

For the substance “5′-CAGUCCCCAGCACUG-3′ (chemistry not fully specified) [15 base mutant substrate, 15 base mutant substrate with 5′ FAM and 3′ BHQ-1 moieties]”, in data set [1] (setting [5]), the “signal from cleaved FAM-BHQ1 labeled substrate (gel)” value is given as “no signal”. The “fluorescence signal, average” value in data set [2] (substrate alone (no IRE-1α)) stood at 10393; in data set [2] (substrate and IRE-1α), 10516.
For “5′-CAGUCCGCAGCACUG-3′ (5' {FAM}, 3' {BHQ1}, sugars by position and backbone not given here) [15 base wild-type substrate, 15 base wild-type substrate with 5′ FAM and 3′ BHQ-1 moieties]”, in data set [3] (10 μl reaction volume), the signal is on record as 60,000 units. Further, the “signal as share of the full 80,000 unit signal” value in data set [3] (10 μl) is on record as “approximately 75%”. Moreover, the “signal from cleaved FAM-BHQ1 labeled substrate (gel)” value in data set [1] (IRE-1α added diluted to 1:3, FIG. 3 lane 15) was “signal”; in data set [1] (setting [5]) it was “signal”. The “fluorescence signal, average” value in data set [2] (substrate alone (no IRE-1α)) came out at 12305; in data set [2] (substrate and IRE-1α), 50076. Moreover, the “ratio of positive control over background” value in data set [2] (wild-type substrate and IRE-1α over substrate alone) stood at 4.07.
As for “5′-GGGUCUGCUGAGUCCCCAG-CACUCAGAAGGCCC-3′ (GGGUCUGCUGAGUCCCCAGCACUCAGAAGGCCC; chemistry not given here) [33 base mutant substrate]”, the “inhibitory activity (fluorescence intensity)” value in data set [4] (similar concentrations (ten-fold to 50-fold excess) of unlabeled competitor) is listed as “no inhibitory activity”. The “cleavage of substrate by IRE-1α (gel)” value in data set [1] (setting [6]) and in data set [1] (setting [7]) was “does not cut” each time.
With “5′-GGGUCUGCUGAGUCCGCAGCACUCAGAAGGCCC-3′ (chemistry not given here) [33 base wild-type substrate, 33 base wild-type stem-loop RNA substrate for IRE-1α]”, the “inhibitory activity (fluorescence intensity)” value in data set [4] (50-fold excess of unlabeled competitor, 1 hour at 30° C.) is given as “greater than 50%”. In addition, the “competition with the 15 base IRE-1α substrate, inhibition of fluorescence intensity” value in data set [4] (ten-fold molar excess of unlabeled competitor, 1 hour at 30° C.) is “begins to compete”. The “cleavage of substrate by IRE-1α (gel)” value in data set [1] (IRE-1α diluted 1:3, with PEG, FIG. 3 lane 9) is reported as “cuts”; in data set [1] (IRE-1α diluted 1:12, with PEG, FIG. 3 lane 10), “cuts”; in data set [1] (setting [6]) it was “cuts”; in data set [1] (setting [7]), “cuts”. Also, in data set [1] (recombinant purified human IRE-1α, FIG. 3C), the “digestion of 33 base stem-loop substrate by IRE-1α (lower molecular weight band)” value was “digested”.
